What was measured:
[1] = Dynamic Vapour Sorption (DVS) analysis; format: physicochemical; details: 25° C., first cycle
Method: (§1) As used herein, DVS means Dynamic Vapour Sorption Analysis. Unless stated otherwise, DVSs were performed according to the following equipment and conditions: DVS-1000 instrument by Surface Measurement Systems was used. Samples were prepared by transferring them into an aluminum crucible and loading this into the DVS. A method utilizing two cycles (0% to 90% RH) and (90% to 0% RH) was run. The equilibrium condition for each step was set to a mass constancy of ±0.001% over 60 min and a maximum time limit of 1440 min for each step. This method was undertaken at 25° C.

[2] = Stability against temperature stress as indicated by DSC and DVS data; format: physicochemical
Method: as §1, with “C. As used herein, DSC means Differential Scanning calorimetry Analysis. Unless stated otherwise, DSCs were performed according to the following equipment and conditions: DSC 822e Mettler Toledo. Crucible: Aluminum crucible with a capacity of 40 μL and with hole the lid. Gas: Dry nitrogen 50 mL/min. Method standard: Heating from 30° C. to 300° C. at a rate of 10° C./min.” for “C.”

| Substance | polymorphic change associated with the sorption/desorption phenomenon in DVS, based on XRPD analysis ([1]; 70-80% relative humidity) | water sorption by the sample (DVS) ([1]; at 70% relative humidity) | water desorption by the sample (DVS) ([1]; at 80% relative humidity) | water sorption by the sample (DVS) ([1]; at 90% relative humidity) | stability against temperature stress for formulation into an oral solid dosage form [2] |
| --- | --- | --- | --- | --- | --- |
| valbenazine ditosylate [Form D] | transformation to polymorphic form II | approximately 6.0% | 4.0% | – | – |
| valbenazine ditosylate [Form E] | – | – | – | approximately 1.4% | stable against temperature stress |
